From patent US10085974B2, “Dosage and formulation” (Almirall, S.A., priority 2008, dated 2018)

What was measured:
[1] = tested on: Patients with moderate to severe stable COPD; assay: Spirometric measurements (FEV1) in a 4-week randomized once-daily trial in COPD patients; format: in vivo, human; conditions: for Mean change from baseline in trough FEV1 on Day 29 (Mean Δ): COPD patients
Procedure: (§1) Methods: Patients with moderate to severe stable COPD were randomized to receive double-blind, once-daily treatment with aclidinium (25, 50, 100, 200, or 400 μg), placebo, or open-label tiotropium 18 μg for 4 weeks. Spirometric measurements were performed at 22-24 h after the first dose and then at weekly intervals, and from 0.5-6 h post-administration on Day 1 and at Week 4 (Day 29).

[2] = tested on: Patients with moderate to severe stable COPD; assay: Tolerability (ECG, laboratory parameters, adverse events) in the 4-week COPD trial; format: in vivo, human; conditions: aclidinium 25-400 μg once daily, 4 weeks
Procedure: as §1

SMILES | Mean change from baseline in trough FEV1 on Day 29 (Mean Δ) ([1]; tiotropium 18 μg once daily, open-label, 4 weeks, *p <0.05 vs placebo) | Mean change from baseline in trough FEV1 on Day 29 (Mean Δ) ([1]; aclidinium 25 μg once daily, double-blind, 4 weeks, inhaled) [mL] | Mean change from baseline in trough FEV1 on Day 29 (Mean Δ) ([1]; aclidinium 50 μg once daily, double-blind, 4 weeks) [mL] | Mean change from baseline in trough FEV1 on Day 29 (Mean Δ) ([1]; aclidinium 100 μg once daily, double-blind, 4 weeks) [mL] | Mean change from baseline in trough FEV1 on Day 29 (Mean Δ) ([1]; aclidinium 200 μg once daily, double-blind, 4 weeks, *p <0.05 vs placebo) | Mean change from baseline in trough FEV1 on Day 29 (Mean Δ) ([1]; aclidinium 400 μg once daily, double-blind, 4 weeks, *p <0.05 vs placebo) | Effect on trough FEV1 on Day 29 ([1]; aclidinium 25-400 μg once daily, 4 weeks) | Bronchodilatory effect compared with open-label tiotropium 18 μg ([1]; aclidinium 200 and 400 μg) | Bronchodilatory effect during the first 6 h post-dose on Day 29 ([1]; all doses, compared with Day 1) | Duration of bronchodilation ([1]; once-daily aclidinium) | Time to peak FEV1 ([1]; post-dose, aclidinium 100-400 μg) [h] | Effect on ECG, laboratory parameters or adverse events [2] | Tolerability [2]
C[N+]1(C)[C@@H]2C[C@@H](OC(=O)C(O)(c3cccs3)c3cccs3)C[C@H]1[C@@H]1O[C@@H]12 [Tiotropium, reference compound] | 161* ml | – | – | – | – | – | – | – | – | – | – | – | –
O=C(O[C@H]1C[N+]2(CCCOc3ccccc3)CCC1CC2)C(O)(c1cccs1)c1cccs1.[Br-] [Aclidinium, 3(R)-(2-hydroxy-2,2-dithien-2-ylacetoxy)-1-(3-phenoxypropyl)-1-azoniabicyclo[2.2.2]octane bromide] | – | 39 | 36 | 83 | 148* ml | 128* ml | dose-dependently increased | comparable bronchodilatory effects | comparable to that on Day 1 | sustained bronchodilation over 24 h | 3 | no dose-dependent effect | well tolerated
